Experimental data published in patent US20110021542A1, “Use of a Combination of Udenafil and Alfuzosin or Oxybutynin for the Treatment of Overactive Bladder” (PELVIPHARM, priority 2008, published 2011).

Test system: carbachol precontracted human bladder strips
Experiment: Relaxation of carbachol-precontracted human detrusor strips
Format: tissue-based
Conditions: carbachol 10^-6 M precontraction; cumulative 10^-9 to 3.10^-5 M; compared with tadalafil, sildenafil, vardenafil; FIG. 1
Protocol: The experiments, collection and use of any tissue or other samples were carried out in accordance with the Research Plan, all relevant laws, regulations and codes of practice, including having obtaining informed consent of patients in writing. Bladders were obtained from donors undergoing cystectomy for infiltrating bladder cancer with no known bladder dysfunction according to their medical chart. In accordance with French legislation, human tissue samples were obtained with patient informed consent and after hepatitis and HIV serologies determination. After surgical procedure, bladder samples were immediately transported from the operating room to the pathologist facilities where a normal piece of the bladder dome, i.e. with no macroscopic tumoral tissue, was selected for experiments by the pathologist. […] The strips were connected to force transducers (Pioden Controls Ltd, UK) and following amplification, the tension changes were recorded via MacLab™/8 using Chart™ 5 software (AD Instruments Ltd). […] For the evaluation of the effect of drugs to inhibit carbachol-induced contractions, relaxations in response to increasing and cumulative concentrations of PDE5 inhibitors or oxybutynin or corresponding concentrations of vehicle are expressed as the percentage of inhibition of the contractile response to carbachol. […]

CCCOc1ccc(S(=O)(=O)NCCC2CCCN2C)cc1-c1nc2c(CCC)nn(C)c2c(=O)[nH]1 (stereo not shown) [Udenafil, 5-[2-propyloxy-5-(1-methyl-2-pyrrolidinylethylamidosulfonyl)phenyl]-methyl-3-propyl-1,6-dihydro-7H-pyrazolo(4,3-d)pyrimidine-7-one]
inhibitory effect to relax carbachol-induced contractions of human bladder strips: greater inhibitory effect than the other PDE-5 inhibitors tested
